Source: patent publication US20260207615A1, “FLUOROPYRIDOPYRIMIDINE AND FLUOROQUINAZOLINE DERIVATIES AND METHODS OF USE THEREOF” (Frontier Medicines Corporation, priority 2022, published 2026)

Biological target: T1, KRAS G12C and cRAF interaction (Homo sapiens, UniProt P01116, C118S/C51S/C80L/G12C)
T1 construct: truncated version comprising amino acids 1-169
Experiment: Inhibition of KRAS G12C and cRAF binding (AlphaScreen)
Assay type: biochemical
Settings: KRAS G12C (Cys-light, aa 1-169) preloaded with GMPPNP, cRaf RBD (aa 50-131), 2 hours incubation
Procedure: The AlphaScreen technology was used to determine IC50s for compound inhibition of KRAS G12C (present as the Cys-light (C51S, C80L and C118S), truncated version comprising amino acids 1-169) and cRAF interaction. Compounds were diluted in 100% DMSO and each compound concentration was spotted at 200 nl/well onto low volume, white 384 well plates. The KRAS G12C contained a biotin-AviTag and the cRaf, as Ras-binding domain (amino acids 50-131, RBD), was GST-tagged. KRAS G12C was preloaded with the GTP analogue Guanosine 5′-[β,γ-imido]triphosphate (GMPPNP). The KRAS G12C was diluted in 25 mM Hepes, pH 7.4, 150 mM NaCl, 5 mM MgCl2, 0.01% TritonX-100 and 10 μM GMPPNP and added at 10 μl/well to compound-spotted plates resulting in a DMSO concentration of 2%. Plates were incubated for 2 hours. A mixture of RBD and the AlphaScreen streptavidin donor and glutathione acceptor beads diluted in 25 mM Hepes, pH 7.4, 150 mM NaCl, 5 mM MgCl2, 0.01% TritonX-100 and 2% DMSO was then added at 10 μl/well and incubated for 60-90 minutes before the samples were read for emission at 570 nm after excitation of the donor beads at 680 nm. All incubations were performed at room temperature. The final top compound concentration was 50 μM with 1:3 titrations for 10-point dose response curves. Final assay conditions were 0.5 nM KRAS G12C, 0.75 nM RBD and 5 μg/ml each of AlphaScreen donor and acceptor beads. IC50S were determined using nonlinear regression fit of [inhibitor] vs. response (4 parameters).
A counter assay was also set up to rule out inhibitors of the AlphaScreen technology itself. Compound plates were incubated for 2 hours as above with buffer only.
The AlphaScreen beads were added as above except biotin-AviTag-GST was substituted for the RBD. Samples were read and analyzed as above.

T1 sequence (P01116 1-169 isoform P01116-2 G12C/C51S/C80L/C118S): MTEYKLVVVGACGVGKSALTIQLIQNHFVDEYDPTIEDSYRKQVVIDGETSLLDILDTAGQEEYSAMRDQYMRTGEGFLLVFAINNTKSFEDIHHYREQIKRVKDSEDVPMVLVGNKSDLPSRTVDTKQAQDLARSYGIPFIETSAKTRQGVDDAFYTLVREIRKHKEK

IC50 [µM] | SMILES
0.01 to 0.1 | CO[C@@H]1CCN(C/C=C/C(=O)N2CCN(c3nc(OC[C@@]45CCCN4C[C@H](F)C5)nc4c(F)c(-c5cccc6ccc(F)c(Cl)c56)ncc34)CC23COC3)C1 [Example 8, (E)-1-(8-(7-(8-chloro-7-fluoronaphthalen-1-yl)-8-fluoro-2-(((2R,7aS)-2-fluorotetrahydro-1H-pyrrolizin-7a(5H)-yl)methoxy)pyrido[4,3-d]pyrimidin-4-yl)-2-oxa-5,8-diazaspiro[3.5]nonan-5-yl)-4-((R)-3-methoxypyrrolidin-1-yl) but-2-en-1-one]
< 0.01 | O=C(/C=C/CN1C[C@H]2C[C@@H]1CO2)N1CCN(c2nc(OC[C@@]34CCCN3C[C@H](F)C4)nc3c(F)c(-c4cccc5ccc(F)c(Cl)c45)ncc23)CC12COC2 [Example 9, (E)-4-((1R,4R)-2-oxa-5-azabicyclo[2.2.1]heptan-5-yl)-1-(8-(7-(8-chloro-7-fluoronaphthalen-1-yl)-8-fluoro-2-(((2R,7aS)-2-fluorotetrahydro-1H-pyrrolizin-7a(5H)-yl)methoxy)pyrido[4,3-d]pyrimidin-4-yl)-2-oxa-5,8-diazaspiro[3.5]nonan-5-yl) but-2-en-1-one]
0.1 to 0.5 | Cc1nccc(/C=C/C(=O)N2CCN(c3nc(OCC45CCCN4CCC5)nc4c(F)c(-c5cccc6ccc(F)c(F)c56)ncc34)CC23COC3)n1 [Example 10, (E)-1-(8-(7-(7,8-difluoronaphthalen-1-yl)-8-fluoro-2-((tetrahydro-1H-pyrrolizin-7a(5H)-yl)methoxy)pyrido[4,3-d]pyrimidin-4-yl)-2-oxa-5,8-diazaspiro[3.5]nonan-5-yl)-3-(2-methylpyrimidin-4-yl) prop-2-en-1-one]
0.1 to 0.5 | Cc1nccc(/C=C/C(=O)N2CCN(c3nc(OCC45CCCN4CCC5)nc4c(F)c(-c5cccc6ccc(F)c(Cl)c56)ncc34)CC23COC3)n1 [Example 11, (E)-1-(8-(7-(8-chloro-7-fluoronaphthalen-1-yl)-8-fluoro-2-((tetrahydro-1H-pyrrolizin-7a(5H)-yl)methoxy)pyrido[4,3-d]pyrimidin-4-yl)-2-oxa-5,8-diazaspiro[3.5]nonan-5-yl)-3-(2-methylpyrimidin-4-yl) prop-2-en-1-one]
≥ 0.5 | O=C(/C=C/CN1CCOCC1)N1CCN(c2nc(OC[C@@]34CCCN3C[C@H](F)C4)nc3c(F)c(-c4cccc5cccc(Cl)c45)ncc23)CC12COC2 [Example 12, (E)-1-(8-(7-(8-chloronaphthalen-1-yl)-8-fluoro-2-(((2R,7aS)-2-fluorotetrahydro-1H-pyrrolizin-7a(5H)-yl)methoxy)pyrido[4,3-d]pyrimidin-4-yl)-2-oxa-5,8-diazaspiro[3.5]nonan-5-yl)-4-morpholinobut-2-en-1-one]
0.01 to 0.1 | O=C(/C=C/CN1C[C@H]2C[C@@H]1CO2)N1CCN(c2nc(OC[C@@]34CCCN3C[C@H](F)C4)nc3c(F)c(-c4cccc5cccc(Cl)c45)ncc23)CC12COC2 [Example 13, (E)-4-((1R,4R)-2-oxa-5-azabicyclo[2.2.1]heptan-5-yl)-1-(8-(7-(8-chloronaphthalen-1-yl)-8-fluoro-2-(((2R,7aS)-2-fluorotetrahydro-1H-pyrrolizin-7a(5H)-yl)methoxy)pyrido[4,3-d]pyrimidin-4-yl)-2-oxa-5,8-diazaspiro[3.5]nonan-5-yl) but-2-en-1-one]
0.01 to 0.1 | O=C(/C=C/CN1CC2CC(C1)O2)N1CCN(c2nc(OC[C@@]34CCCN3C[C@H](F)C4)nc3c(F)c(-c4cccc5cccc(Cl)c45)ncc23)CC12COC2 [Example 14, (E)-4-(6-oxa-3-azabicyclo[3.1.1]heptan-3-yl)-1-(8-(7-(8-chloronaphthalen-1-yl)-8-fluoro-2-(((2R,7aS)-2-fluorotetrahydro-1H-pyrrolizin-7a(5H)-yl)methoxy)pyrido[4,3-d]pyrimidin-4-yl)-2-oxa-5,8-diazaspiro[3.5]nonan-5-yl) but-2-en-1-one]
0.01 to 0.1 | O=C(/C=C/CN1CC2CCC(C1)O2)N1CCN(c2nc(OC[C@@]34CCCN3C[C@H](F)C4)nc3c(F)c(-c4cccc5cccc(Cl)c45)ncc23)CC12COC2 [Example 15, (E)-4-(8-oxa-3-azabicyclo[3.2.1]octan-3-yl)-1-(8-(7-(8-chloronaphthalen-1-yl)-8-fluoro-2-(((2R,7aS)-2-fluorotetrahydro-1H-pyrrolizin-7a(5H)-yl)methoxy)pyrido[4,3-d]pyrimidin-4-yl)-2-oxa-5,8-diazaspiro[3.5]nonan-5-yl) but-2-en-1-one]
0.1 to 0.5 | O=C(C#CCN1CCOCC1)N1CCN(c2nc(OC[C@@]34CCCN3C[C@H](F)C4)nc3c(F)c(-c4cccc5cccc(Cl)c45)ncc23)CC12COC2 [Example 16, 1-(8-(7-(8-chloronaphthalen-1-yl)-8-fluoro-2-(((2R,7aS)-2-fluorotetrahydro-1H-pyrrolizin-7a(5H)-yl)methoxy)pyrido[4,3-d]pyrimidin-4-yl)-2-oxa-5,8-diazaspiro[3.5]nonan-5-yl)-4-morpholinobut-2-yn-1-one]
0.01 to 0.1 | C=CC(=O)N1CCN(c2nc(OC[C@@]34CCCN3C[C@H](F)C4)nc3c(F)c(-c4cccc5cccc(Cl)c45)ncc23)CC12COC2 [Example 17, 1-(8-(7-(8-chloronaphthalen-1-yl)-8-fluoro-2-(((2R,7aS)-2-fluorotetrahydro-1H-pyrrolizin-7a(5H)-yl)methoxy)pyrido[4,3-d]pyrimidin-4-yl)-2-oxa-5,8-diazaspiro[3.5]nonan-5-yl) prop-2-en-1-one]
0.01 to 0.1 | O=C(/C=C/CN1CCOCC1)N1CCN(c2nc(OC[C@@]34CCCN3C[C@H](F)C4)nc3c(F)c(-c4cccc5ccc(F)c(F)c45)ncc23)CC12COC2 [Example 18, (E)-1-(8-(7-(7,8-difluoronaphthalen-1-yl)-8-fluoro-2-(((2R,7aS)-2-fluorotetrahydro-1H-pyrrolizin-7a(5H)-yl)methoxy)pyrido[4,3-d]pyrimidin-4-yl)-2-oxa-5,8-diazaspiro[3.5]nonan-5-yl)-4-morpholinobut-2-en-1-one]
< 0.01 | O=C(/C=C/CN1C[C@H]2C[C@@H]1CO2)N1CCN(c2nc(OC[C@@]34CCCN3C[C@H](F)C4)nc3c(F)c(-c4cccc5ccc(F)c(F)c45)ncc23)CC12COC2 [Example 19, (E)-4-((1R,4R)-2-oxa-5-azabicyclo[2.2.1]heptan-5-yl)-1-(8-(7-(7,8-difluoronaphthalen-1-yl)-8-fluoro-2-(((2R,7aS)-2-fluorotetrahydro-1H-pyrrolizin-7a(5H)-yl)methoxy)pyrido[4,3-d]pyrimidin-4-yl)-2-oxa-5,8-diazaspiro[3.5]nonan-5-yl) but-2-en-1-one]
< 0.01 | O=C(/C=C/CN1CC2CC(C1)O2)N1CCN(c2nc(OC[C@@]34CCCN3C[C@H](F)C4)nc3c(F)c(-c4cccc5ccc(F)c(F)c45)ncc23)CC12COC2 [Example 20, (E)-4-(6-oxa-3-azabicyclo[3.1.1]heptan-3-yl)-1-(8-(7-(7,8-difluoronaphthalen-1-yl)-8-fluoro-2-(((2R,7aS)-2-fluorotetrahydro-1H-pyrrolizin-7a(5H)-yl)methoxy)pyrido[4,3-d]pyrimidin-4-yl)-2-oxa-5,8-diazaspiro[3.5]nonan-5-yl) but-2-en-1-one]
< 0.01 | O=C(/C=C/CN1[C@@H]2CC[C@H]1COC2)N1CCN(c2nc(OC[C@@]34CCCN3C[C@H](F)C4)nc3c(F)c(-c4cccc5ccc(F)c(F)c45)ncc23)CC12COC2 [Example 21, (E)-4-((1R,5S)-3-oxa-8-azabicyclo[3.2.1]octan-8-yl)-1-(8-(7-(7,8-difluoronaphthalen-1-yl)-8-fluoro-2-(((2R,7aS)-2-fluorotetrahydro-1H-pyrrolizin-7a(5H)-yl)methoxy)pyrido[4,3-d]pyrimidin-4-yl)-2-oxa-5,8-diazaspiro[3.5]nonan-5-yl) but-2-en-1-one]
< 0.01 | O=C(/C=C/CN1CC2CCC(C1)O2)N1CCN(c2nc(OC[C@@]34CCCN3C[C@H](F)C4)nc3c(F)c(-c4cccc5ccc(F)c(F)c45)ncc23)CC12COC2 [Example 22, (E)-4-(8-oxa-3-azabicyclo[3.2.1]octan-3-yl)-1-(8-(7-(7,8-difluoronaphthalen-1-yl)-8-fluoro-2-(((2R,7aS)-2-fluorotetrahydro-1H-pyrrolizin-7a(5H)-yl)methoxy)pyrido[4,3-d]pyrimidin-4-yl)-2-oxa-5,8-diazaspiro[3.5]nonan-5-yl) but-2-en-1-one]
< 0.01 | O=C(/C=C/CN1[C@@H]2CC[C@H]1COC2)N1CCN(c2nc(OC[C@@]34CCCN3C[C@H](F)C4)nc3c(F)c(-c4cccc5ccc(F)c(Cl)c45)ncc23)CC12COC2 [Example 23, (E)-4-((1R,5S)-3-oxa-8-azabicyclo[3.2.1]octan-8-yl)-1-(8-(7-(8-chloro-7-fluoronaphthalen-1-yl)-8-fluoro-2-(((2R,7aS)-2-fluorotetrahydro-1H-pyrrolizin-7a(5H)-yl)methoxy)pyrido[4,3-d]pyrimidin-4-yl)-2-oxa-5,8-diazaspiro[3.5]nonan-5-yl) but-2-en-1-one]
